Source: patent US4075336A, “Thiazines and method” (Kanto Ishiseiyaku Co., Ltd., priority 1976, dated 1978)

Key:
[1] = Acute toxicity, intraperitoneal (LD50, deaths); format: in vivo; settings: mouse, in vivo, ip; intraperitoneal, dd strain mice, males and females
Procedure: (§1) Animals [dd strain mice; 5 groups of males and 5 groups of females, each group consisting of 8 animals] were intraperitoneally given the compound of this invention in doses of 2000, 2400, 2880, 3456 and 5000 mg/kg. […] Based on this finding, it may be concluded that the value of LD50 is at least more than 5000 mg/kg.

dd strain mice [2] = assay: Acute toxicity, intraperitoneal (LD50, deaths); format: in vivo
Procedure: as §1

Wister-strain rats = assay: Anti-inflammatory effect, carrageenan-induced edema; format: in vivo; settings: for inhibitory percent: vs control
Procedure: (Carrageenen-induced edema)
Wister-strain rats (each group consisting of 5 animals) were subcutaneously given 0.1 ml of a 1% carrageenan suspension on their right paws. The volumes of the right paws were measured prior to the administration, and thereafter were measured with elapsed time. The inhibitory percent was calculated, in comparison with a control, on the basis of the volume of edema induced. The volume was estimated with reference to the volume before the carrageenan-injection. The test compounds were orally administered 1 hour before the carrageenan-injection. The same experiments were repeated twice. The mean values of the results in all 10 animals were compared with those of methiazinic acid.

rats = assay: Analgesic effect, Randall-Selitto method (pain threshold, carrageenan-inflamed paw); format: in vivo
Procedure: Using an analgesic effect measuring apparatus (made by Ugo Basile Co., Ltd.), pain thresholds in rats were measured as a function of elapsed time and compared with normal pain threshold values which had previously been determined. Each group consisted of 5 animals, which were subcutaneously given 0.1 ml of a 1% carrageenan suspension on their right paws. The test compounds were given orally, 1 hour before the carrageenan medication. The experiments were repeated twice under the same conditions. The mean values of the results obtained for 10 animals were compared with those of methiazinic acid.
The results obtained are shown in Table 1, wherein "OS" refers to oral administration.

dd strain mice [3] = settings: methiazinic acid; source of value not given; cited from earlier work
[4] = 50 mg/kg per os, inflammated paw
[5] = 100 mg/kg per os, inflammated paw

COc1ccc(C2NC(=O)c3ccccc3S2)cc1O (centres unmarked) [Compound of this invention, 4-oxo-2-(3-hydroxy-4-methoxyphenyl)-2,3-dihydro-5,6-benzo-1,3-thiazine]
LD50 [1]: > 5000 mg/kg | toxicity relative to that of methiazinic acid (dd strain mice [2]; from LD50 values): less than one/tenth | deaths (dd strain mice [2]; intraperitoneal, 2000, 2400, 2880, 3456 and 5000 mg/kg, male and female dd strain mice): no deaths were observed | edema percent (Wister-strain rats; 50 mg/kg per os, 1 hr.): 29.3% | inhibitory percent (Wister-strain rats; 50 mg/kg per os, 1 hr.): 39.2% | edema percent (Wister-strain rats; 50 mg/kg per os, 2 hrs.): 43.1% | inhibitory percent (Wister-strain rats; 50 mg/kg per os, 2 hrs.): 32.6% | edema percent (Wister-strain rats; 50 mg/kg per os, 3 hrs.): 43.1% | inhibitory percent (Wister-strain rats; 50 mg/kg per os, 3 hrs.): 37.3% | edema percent (Wister-strain rats; 50 mg/kg per os, 4 hrs.): 42.4% | inhibitory percent (Wister-strain rats; 50 mg/kg per os, 4 hrs.): 32.1% | edema percent (Wister-strain rats; 50 mg/kg per os, 5 hrs.): 37.4% | inhibitory percent (Wister-strain rats; 50 mg/kg per os, 5 hrs.): 36.4% | edema percent (Wister-strain rats; 100 mg/kg per os, 1 hr.): 24.1% | inhibitory percent (Wister-strain rats; 100 mg/kg per os, 1 hr.): 42.1% | edema percent (Wister-strain rats; 100 mg/kg per os, 2 hrs.): 31.5% | inhibitory percent (Wister-strain rats; 100 mg/kg per os, 2 hrs.): 49.9% | edema percent (Wister-strain rats; 100 mg/kg per os, 3 hrs.): 34.6% | inhibitory percent (Wister-strain rats; 100 mg/kg per os, 3 hrs.): 50.4% | edema percent (Wister-strain rats; 100 mg/kg per os, 4 hrs.): 33.9% | inhibitory percent (Wister-strain rats; 100 mg/kg per os, 4 hrs.): 47.5% | edema percent (Wister-strain rats; 100 mg/kg per os, 5 hrs.): 35.5% | inhibitory percent (Wister-strain rats; 100 mg/kg per os, 5 hrs.): 39.1% | anti-inflammatory effect compared with methiazinic acid (in words) (Wister-strain rats; 50 and 100 mg/kg per os): very similar to that of methiazinic acid | duration of anti-inflammatory effect (in words) (Wister-strain rats; 50 and 100 mg/kg per os): long duration effect, which was observed even after 5 hours | anti-inflammatory effect 1 hour after administration (in words) (Wister-strain rats; 50 and 100 mg/kg per os, 1 hour): significant effect 1 hour after administration | Analgesic coefficient (rats; [4]): 0.73 | Pain threshold after 30 min. (rats; [4]): 62.5 mm Hg | Pain threshold after 60 min. (rats; [4]): 57.7 mm Hg | Pain threshold after 90 min. (rats; [4]): 48.0 mm Hg | Pain threshold after 120 min. (rats; [4]): 41.8 mm Hg | Pain threshold after 180 min. (rats; [4]): 36.8 mm Hg | Pain threshold after 240 min. (rats; [4]): 44.2 mm Hg | Pain threshold, before medication (rats; [4]): 66.8 mm Hg | Analgesic coefficient (rats; 50 mg/kg per os, normal paw): 0.93 | Pain threshold after 30 min. (rats; 50 mg/kg per os, normal paw): 66.7 mm Hg | Pain threshold after 60 min. (rats; 50 mg/kg per os, normal paw): 66.0 mm Hg | Pain threshold after 90 min. (rats; 50 mg/kg per os, normal paw): 64.0 mm Hg | Pain threshold after 120 min. (rats; 50 mg/kg per os, normal paw): 61.7 mm Hg | Pain threshold after 180 min. (rats; 50 mg/kg per os, normal paw): 57.3 mm Hg | Pain threshold after 240 min. (rats; 50 mg/kg per os, normal paw): 60.8 mm Hg | Pain threshold, before medication (rats; 50 mg/kg per os, normal paw): 67.3 mm Hg | Analgesic coefficient (rats; [5]): 0.82 | Pain threshold after 30 min. (rats; [5]): 66.7 mm Hg | Pain threshold after 60 min. (rats; [5]): 63.7 mm Hg | Pain threshold after 90 min. (rats; [5]): 57.2 mm Hg | Pain threshold after 120 min. (rats; [5]): 49.0 mm Hg | Pain threshold after 180 min. (rats; [5]): 43.3 mm Hg | Pain threshold after 240 min. (rats; [5]): 43.2 mm Hg | Pain threshold, before medication (rats; [5]): 65.6 mm Hg | Analgesic coefficient (rats; 100 mg/kg per os, normal paw): 0.96 | Pain threshold after 30 min. (rats; 100 mg/kg per os, normal paw): 65.0 mm Hg | Pain threshold after 60 min. (rats; 100 mg/kg per os, normal paw): 65.7 mm Hg | Pain threshold after 90 min. (rats; 100 mg/kg per os, normal paw): 65.2 mm Hg | Pain threshold after 120 min. (rats; 100 mg/kg per os, normal paw): 62.5 mm Hg | Pain threshold after 180 min. (rats; 100 mg/kg per os, normal paw): 61.0 mm Hg | Pain threshold after 240 min. (rats; 100 mg/kg per os, normal paw): 61.2 mm Hg | Pain threshold, before medication (rats; 100 mg/kg per os, normal paw): 66.0 mm Hg | analgesic effect (in words) (rats; 50 and 100 mg/kg, oral): clearly exerts analgesic effects | duration and strength of analgesic effect compared with methiazinic acid (in words) (rats; 50 and 100 mg/kg, oral): about the same duration and strength of effect as methiazinic acid

CN1c2ccccc2Sc2ccc(CC(=O)O)cc21 [Methiazinic acid, α-(10-methyl-2-pheno-thiazinyl)-acetic acid, reference compound]
edema percent (Wister-strain rats; 50 mg/kg per os, 1 hr.): 38.8% | inhibitory percent (Wister-strain rats; 50 mg/kg per os, 1 hr.): 19.6% | edema percent (Wister-strain rats; 50 mg/kg per os, 2 hrs.): 47.7% | inhibitory percent (Wister-strain rats; 50 mg/kg per os, 2 hrs.): 25.5% | edema percent (Wister-strain rats; 50 mg/kg per os, 3 hrs.): 48.8% | inhibitory percent (Wister-strain rats; 50 mg/kg per os, 3 hrs.): 29.2% | edema percent (Wister-strain rats; 50 mg/kg per os, 4 hrs.): 46.7% | inhibitory percent (Wister-strain rats; 50 mg/kg per os, 4 hrs.): 25.2% | edema percent (Wister-strain rats; 50 mg/kg per os, 5 hrs.): 39.4% | inhibitory percent (Wister-strain rats; 50 mg/kg per os, 5 hrs.): 32.9% | edema percent (Wister-strain rats; 100 mg/kg per os, 1 hr.): 34.2% | inhibitory percent (Wister-strain rats; 100 mg/kg per os, 1 hr.): 17.7% | edema percent (Wister-strain rats; 100 mg/kg per os, 2 hrs.): 38.1% | inhibitory percent (Wister-strain rats; 100 mg/kg per os, 2 hrs.): 39.3% | edema percent (Wister-strain rats; 100 mg/kg per os, 3 hrs.): 40.1% | inhibitory percent (Wister-strain rats; 100 mg/kg per os, 3 hrs.): 42.4% | edema percent (Wister-strain rats; 100 mg/kg per os, 4 hrs.): 39.7% | inhibitory percent (Wister-strain rats; 100 mg/kg per os, 4 hrs.): 38.5% | edema percent (Wister-strain rats; 100 mg/kg per os, 5 hrs.): 36.0% | inhibitory percent (Wister-strain rats; 100 mg/kg per os, 5 hrs.): 38.3% | LD50 (dd strain mice [3]): about 500 mg/kg | Analgesic coefficient (rats; [4]): 0.74 | Pain threshold after 30 min. (rats; [4]): 62.7 mm Hg | Pain threshold after 60 min. (rats; [4]): 57.7 mm Hg | Pain threshold after 90 min. (rats; [4]): 48.9 mm Hg | Pain threshold after 120 min. (rats; [4]): 43.5 mm Hg | Pain threshold after 180 min. (rats; [4]): 39.0 mm Hg | Pain threshold after 240 min. (rats; [4]): 44.5 mm Hg | Pain threshold, before medication (rats; [4]): 66.8 mm Hg | Analgesic coefficient (rats; 50 mg/kg per os, normal paw): 0.94 | Pain threshold after 30 min. (rats; 50 mg/kg per os, normal paw): 66.2 mm Hg | Pain threshold after 60 min. (rats; 50 mg/kg per os, normal paw): 65.3 mm Hg | Pain threshold after 90 min. (rats; 50 mg/kg per os, normal paw): 63.8 mm Hg | Pain threshold after 120 min. (rats; 50 mg/kg per os, normal paw): 62.0 mm Hg | Pain threshold after 180 min. (rats; 50 mg/kg per os, normal paw): 59.7 mm Hg | Pain threshold after 240 min. (rats; 50 mg/kg per os, normal paw): 61.3 mm Hg | Pain threshold, before medication (rats; 50 mg/kg per os, normal paw): 67.2 mm Hg | Analgesic coefficient (rats; [5]): 0.83 | Pain threshold after 30 min. (rats; [5]): 69.3 mm Hg | Pain threshold after 60 min. (rats; [5]): 66.7 mm Hg | Pain threshold after 90 min. (rats; [5]): 57.3 mm Hg | Pain threshold after 120 min. (rats; [5]): 49.5 mm Hg | Pain threshold after 180 min. (rats; [5]): 47.2 mm Hg | Pain threshold after 240 min. (rats; [5]): 47.2 mm Hg | Pain threshold, before medication (rats; [5]): 67.7 mm Hg | Analgesic coefficient (rats; 100 mg/kg per os, normal paw): 0.98 | Pain threshold after 30 min. (rats; 100 mg/kg per os, normal paw): 69.0 mm Hg | Pain threshold after 60 min. (rats; 100 mg/kg per os, normal paw): 66.7 mm Hg | Pain threshold after 90 min. (rats; 100 mg/kg per os, normal paw): 65.5 mm Hg | Pain threshold after 120 min. (rats; 100 mg/kg per os, normal paw): 64.8 mm Hg | Pain threshold after 180 min. (rats; 100 mg/kg per os, normal paw): 62.8 mm Hg | Pain threshold after 240 min. (rats; 100 mg/kg per os, normal paw): 64.0 mm Hg | Pain threshold, before medication (rats; 100 mg/kg per os, normal paw): 66.9 mm Hg
